In publication PMC9858543, “Design, synthesis and evaluation of 2, 6, 8-substituted Imidazopyridine derivatives as potent PI3Kα inhibitors” (Journal of Enzyme Inhibition and Medicinal Chemistry, 2023):
Where two headings read alike, the source gives them in different places.

What was measured:
[1] = Parallel artificial membrane permeability assay (Egg-PAMPA); type: in vitro ADME; details: incubation 4 h; for Papp at 4 h, 10 μM: PAMPA
Method: 10.0 μM donor solution (5% DMSO) was prepared by diluting of working solution with PBS. The donor solution was added to each well of the donor plate, whose PVDF membrane was precoated with 5 µL of 1% lecithin/dodecane mixture. Duplicates were prepared.Then, PBS was added to each well of the PTFE acceptor plate. The donor plate and acceptor plate were combined and incubated for 4 h at room temperature with shaking at 300 rpm. Acceptor samples and donor samples were prepared and analysed by LC-MS/MS.

MCF-7 = assay: Cell proliferation assay (CellTiter-Glo), MCF-7; type: cell-based; details: Homo sapiens, MCF7; 72 h exposure; mean ± SD of two experiments
Method: (§1) Given the desirable enzyme activity profile, these compounds were further assayed for their antiproliferative activities against five independent human tumour cell line collections harbouring PIK3CA mutation, including human ovarian cancer cell line SKOV-3, human breast cancer T47D and MCF-7, human lung cancer H1975 and H460. […] In general, the cellular activity of tested derivatives corrected with their effects on kinase activity.
(§2) All target compounds were evaluated for antiproliferative potency against SKOV-3, T47D,NCI-H1975, NCI-H460,and MCF-7 tumour cell lines using a CellTiter-Glo® Luminescent Cell Viability Assay. The human tumour cell lines used were obtained from the ATCC or Shanghai ZhongQiaoXinZhou Biotech. All the mediums and FBS were Gibco. T47D, H1975 and NCI-H460 tumour cells were cultured in RPMI1640 medium supplemented with 10% FBS. SKOV-3 was cultured in McCoy’s 5 A medium supplemented with 10%FBS. The day before treatment with compounds, cells were seeded at a density of 2000 or 5000 in each well of a 96-well plate. The tumour cells were then treated with 3-fold serial diluted compound or DMSO control in the incubator at 37 °C and 5% CO2 for 3 days, prior to the addition of CellTiter-Glo reagents (Promega) and reading of luminescence using a PerkinElmer Envision plate reader. Data were analysed using GraphPad Prism 7.0.

PI3Kα = molecular target: T1, PI3Kα (Homo sapiens, UniProt P42336); assay: In vitro PI3Kα enzymatic assay (ADP-Glo / Kinase-Glo, ATP 25 μM); type: biochemical; details: ATP 25 μM
T1 construct: purchased Invitrogen

NCI-H460 = assay: Cell proliferation assay (CellTiter-Glo), NCI-H460; type: cell-based; details: Homo sapiens, 72 h exposure, mean ± SD of two experiments
Method: as §1, §2

CYP2C19 = molecular target: T2, CYP2C19 (Homo sapiens, UniProt P33261); assay: CYP450 inhibition assay in human liver microsomes; type: in vitro ADME; details: 10 μM
T2 construct: tissue Lot No. 38292; host or cells: human liver microsomes
Method: (§3) Cytochrome P450 inhibition was evaluated in human liver microsomes (0.253 mg/mL, Lot No. 38292) using five specific probe substrates (CYP1A2, 10 μM phenacetin; CYP2D6, 5 μM dextromethorphan; and CYP3A4, 2 μM midazolam; 2C9, 5 μM Diclofenac; 2C19, 30 μM S-mephenytoin) and positive control in the presence of multiple concentrations of the test compound. After pre-warm at 37 °C for 10 min, the reaction was initiated by the addition of NADPH. The mixture was incubated at 37 °C for 10 min, terminated by the addition of cold stop solution (200 ng/mL tolbutamide and 200 ng/mL labetalol in acetonitrile). The samples were centrifuged, and the supernatants were analysed by LC − MS/MS.

CYP2C9 = molecular target: T3, CYP2C9 (Homo sapiens, UniProt P11712); assay: CYP450 inhibition assay in human liver microsomes; type: in vitro ADME; details: 10 μM
T3 construct: tissue Lot No. 38292; host or cells: human liver microsomes
Method: as §3

CYP2D6 = molecular target: T4, CYP2D6 (Homo sapiens, UniProt P10635); assay: CYP450 inhibition assay in human liver microsomes; type: in vitro ADME; details: 10 μM
T4 construct: tissue Lot No. 38292; host or cells: human liver microsomes
Method: as §3

CYP3A4 = molecular target: T5, CYP3A4 (Homo sapiens, UniProt P08684); assay: CYP450 inhibition assay in human liver microsomes; type: in vitro ADME; details: 10 μM
T5 construct: tissue Lot No. 38292; host or cells: human liver microsomes
Method: as §3

CYP1A2 = molecular target: T6, CYP1A2 (Homo sapiens, UniProt P05177); assay: CYP450 inhibition assay in human liver microsomes; type: in vitro ADME; details: 10 μM
T6 construct: tissue Lot No. 38292; host or cells: human liver microsomes
T6 sequence (P05177 1-516): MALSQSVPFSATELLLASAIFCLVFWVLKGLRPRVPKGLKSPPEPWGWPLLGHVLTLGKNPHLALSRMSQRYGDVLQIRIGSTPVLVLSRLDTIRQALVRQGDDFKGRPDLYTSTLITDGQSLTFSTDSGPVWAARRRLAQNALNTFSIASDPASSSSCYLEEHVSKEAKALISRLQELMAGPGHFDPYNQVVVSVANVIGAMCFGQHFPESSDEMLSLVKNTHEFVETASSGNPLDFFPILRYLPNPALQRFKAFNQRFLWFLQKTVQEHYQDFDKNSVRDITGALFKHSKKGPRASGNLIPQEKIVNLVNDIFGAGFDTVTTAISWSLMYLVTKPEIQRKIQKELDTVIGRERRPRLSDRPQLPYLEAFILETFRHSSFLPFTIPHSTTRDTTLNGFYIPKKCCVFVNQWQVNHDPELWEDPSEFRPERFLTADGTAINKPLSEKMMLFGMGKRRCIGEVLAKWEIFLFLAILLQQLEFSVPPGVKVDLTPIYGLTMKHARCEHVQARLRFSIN
Method: as §3

T1 sequence (P42336 whole entry): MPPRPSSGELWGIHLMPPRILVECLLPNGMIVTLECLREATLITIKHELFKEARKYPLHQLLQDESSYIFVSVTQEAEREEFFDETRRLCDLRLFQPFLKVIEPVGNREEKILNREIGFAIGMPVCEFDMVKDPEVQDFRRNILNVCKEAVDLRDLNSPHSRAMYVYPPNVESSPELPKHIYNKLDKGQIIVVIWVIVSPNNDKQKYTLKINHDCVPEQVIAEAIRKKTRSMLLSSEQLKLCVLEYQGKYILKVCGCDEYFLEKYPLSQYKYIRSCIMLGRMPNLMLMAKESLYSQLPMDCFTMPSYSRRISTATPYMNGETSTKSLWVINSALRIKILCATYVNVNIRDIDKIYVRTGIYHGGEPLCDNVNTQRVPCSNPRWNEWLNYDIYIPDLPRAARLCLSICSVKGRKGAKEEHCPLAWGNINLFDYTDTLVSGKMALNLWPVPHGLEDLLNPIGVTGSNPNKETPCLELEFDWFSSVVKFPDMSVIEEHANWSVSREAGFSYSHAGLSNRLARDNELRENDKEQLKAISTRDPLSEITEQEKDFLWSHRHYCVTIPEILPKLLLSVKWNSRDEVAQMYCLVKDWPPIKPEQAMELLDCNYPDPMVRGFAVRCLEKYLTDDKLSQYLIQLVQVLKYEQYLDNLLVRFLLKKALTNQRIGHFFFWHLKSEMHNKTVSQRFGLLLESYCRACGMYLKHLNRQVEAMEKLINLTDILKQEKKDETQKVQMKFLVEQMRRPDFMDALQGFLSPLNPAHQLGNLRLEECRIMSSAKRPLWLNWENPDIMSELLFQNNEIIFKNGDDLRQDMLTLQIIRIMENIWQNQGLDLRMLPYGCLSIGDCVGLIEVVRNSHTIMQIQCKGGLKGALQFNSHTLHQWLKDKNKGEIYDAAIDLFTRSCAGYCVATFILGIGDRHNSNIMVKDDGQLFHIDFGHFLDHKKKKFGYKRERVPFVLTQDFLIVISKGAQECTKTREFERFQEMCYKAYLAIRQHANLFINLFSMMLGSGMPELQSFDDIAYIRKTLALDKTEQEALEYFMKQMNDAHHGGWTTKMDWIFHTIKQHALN
T1 sequence (P27986 whole entry partner): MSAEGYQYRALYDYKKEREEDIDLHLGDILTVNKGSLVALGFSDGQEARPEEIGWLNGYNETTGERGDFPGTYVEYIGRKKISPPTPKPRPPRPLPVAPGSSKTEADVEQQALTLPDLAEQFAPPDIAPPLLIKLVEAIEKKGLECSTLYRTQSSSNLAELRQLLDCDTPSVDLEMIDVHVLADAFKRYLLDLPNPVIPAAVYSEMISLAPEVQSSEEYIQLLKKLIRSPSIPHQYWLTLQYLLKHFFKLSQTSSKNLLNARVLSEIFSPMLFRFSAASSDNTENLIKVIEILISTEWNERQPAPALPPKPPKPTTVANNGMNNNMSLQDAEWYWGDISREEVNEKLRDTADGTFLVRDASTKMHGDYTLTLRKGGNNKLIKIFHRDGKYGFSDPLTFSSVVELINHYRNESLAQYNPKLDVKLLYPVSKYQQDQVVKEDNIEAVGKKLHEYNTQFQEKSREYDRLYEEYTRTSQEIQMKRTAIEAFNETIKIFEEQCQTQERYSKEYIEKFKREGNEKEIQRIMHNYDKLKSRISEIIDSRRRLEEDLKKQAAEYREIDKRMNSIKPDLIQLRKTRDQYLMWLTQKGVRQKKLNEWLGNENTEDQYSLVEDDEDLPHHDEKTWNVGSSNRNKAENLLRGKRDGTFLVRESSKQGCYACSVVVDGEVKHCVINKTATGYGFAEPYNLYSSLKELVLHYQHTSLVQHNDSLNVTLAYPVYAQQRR
T4 sequence (P10635 whole entry): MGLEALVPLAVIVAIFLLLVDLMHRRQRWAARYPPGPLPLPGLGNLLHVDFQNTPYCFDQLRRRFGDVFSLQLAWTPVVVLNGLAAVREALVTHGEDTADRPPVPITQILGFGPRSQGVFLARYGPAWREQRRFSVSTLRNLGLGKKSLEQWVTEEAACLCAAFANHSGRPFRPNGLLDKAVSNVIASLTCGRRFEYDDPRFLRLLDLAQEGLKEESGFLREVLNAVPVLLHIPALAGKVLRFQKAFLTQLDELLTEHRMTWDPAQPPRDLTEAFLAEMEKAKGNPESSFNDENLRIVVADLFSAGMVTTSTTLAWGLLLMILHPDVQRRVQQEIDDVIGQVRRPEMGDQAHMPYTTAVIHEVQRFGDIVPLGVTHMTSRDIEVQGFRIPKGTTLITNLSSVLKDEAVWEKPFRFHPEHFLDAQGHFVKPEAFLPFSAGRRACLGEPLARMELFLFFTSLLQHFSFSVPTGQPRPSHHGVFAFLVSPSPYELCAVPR
T3 sequence (P11712 whole entry): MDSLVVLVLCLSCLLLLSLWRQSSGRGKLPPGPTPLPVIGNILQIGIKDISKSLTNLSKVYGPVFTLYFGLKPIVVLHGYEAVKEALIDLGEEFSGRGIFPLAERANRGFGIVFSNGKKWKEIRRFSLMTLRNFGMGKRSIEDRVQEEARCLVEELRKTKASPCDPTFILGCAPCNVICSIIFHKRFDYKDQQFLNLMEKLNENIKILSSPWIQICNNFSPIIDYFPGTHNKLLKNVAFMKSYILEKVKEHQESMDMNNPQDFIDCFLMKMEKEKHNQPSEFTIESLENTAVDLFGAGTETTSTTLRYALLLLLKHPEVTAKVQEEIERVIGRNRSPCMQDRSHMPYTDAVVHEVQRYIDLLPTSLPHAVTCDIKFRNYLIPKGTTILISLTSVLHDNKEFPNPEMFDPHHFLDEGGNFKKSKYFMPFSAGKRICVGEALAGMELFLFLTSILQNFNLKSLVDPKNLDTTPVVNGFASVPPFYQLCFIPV
T2 sequence (P33261 whole entry): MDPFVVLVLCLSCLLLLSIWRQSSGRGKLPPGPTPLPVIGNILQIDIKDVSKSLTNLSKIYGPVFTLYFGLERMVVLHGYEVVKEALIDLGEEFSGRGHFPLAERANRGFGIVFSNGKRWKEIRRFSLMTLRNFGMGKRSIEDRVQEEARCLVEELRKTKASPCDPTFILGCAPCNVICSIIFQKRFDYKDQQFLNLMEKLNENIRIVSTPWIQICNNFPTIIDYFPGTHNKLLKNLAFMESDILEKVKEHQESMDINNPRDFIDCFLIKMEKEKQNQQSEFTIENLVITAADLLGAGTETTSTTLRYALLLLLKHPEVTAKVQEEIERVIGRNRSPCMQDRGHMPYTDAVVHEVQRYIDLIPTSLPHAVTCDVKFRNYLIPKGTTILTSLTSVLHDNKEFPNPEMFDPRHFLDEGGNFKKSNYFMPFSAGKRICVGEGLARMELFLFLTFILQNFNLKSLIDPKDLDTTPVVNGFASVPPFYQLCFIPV
T5 sequence (P08684 whole entry): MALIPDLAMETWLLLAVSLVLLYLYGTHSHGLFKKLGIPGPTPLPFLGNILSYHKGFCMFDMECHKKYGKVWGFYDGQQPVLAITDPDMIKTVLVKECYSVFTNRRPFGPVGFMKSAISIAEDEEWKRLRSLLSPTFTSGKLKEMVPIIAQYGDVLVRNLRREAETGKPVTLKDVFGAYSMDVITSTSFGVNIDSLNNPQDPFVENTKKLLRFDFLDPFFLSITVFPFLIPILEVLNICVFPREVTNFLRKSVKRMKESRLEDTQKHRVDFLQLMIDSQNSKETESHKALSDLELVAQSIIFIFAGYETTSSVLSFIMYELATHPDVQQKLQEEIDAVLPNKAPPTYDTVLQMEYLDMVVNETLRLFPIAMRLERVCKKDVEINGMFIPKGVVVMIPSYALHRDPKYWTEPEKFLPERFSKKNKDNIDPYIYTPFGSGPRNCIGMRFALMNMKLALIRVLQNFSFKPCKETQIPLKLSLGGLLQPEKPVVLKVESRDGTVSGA

With `COc1ncc(-c2cc(C)cn3cc(C(=O)N4CCCC4)nc23)cc1NS(=O)(=O)c1ccc(F)cc1` [Compound 35, 4-Fluoro-N-(2-methoxy-5–(6-methyl-2-(pyrrolidine-1-carbonyl)Imidazo[1,2-a]pyridin-8-yl)pyridin-3-yl)benzenesulfonamide] the “Mean Pe” value ([1]; 10 μM) was “higher than 10 nm/s”, the Papp at 4 h, 10 μM ([1]; read-out: Mean Pe) was 1.54 ×10⁻⁶ cm/s and the Papp at 4 h, 10 μM ([1]; read-out: Permeability) was greater than 1 ×10⁻⁶ cm/s. It also gave an IC50 (MCF-7) of 9.4 ± 0.6 µM, an IC50 (PI3Kα; mean ± SD of two experiments) of 0.15 ± 0.02 µM and an inhibition at 10 µM (PI3Kα; PI3Kα, compound 10 μM, mean ± SD of three determinations, read-out: % Inhibition at 10 μM) greater than 85%. The IC50 (NCI-H460) was 17.7 ± 2 µM, the CYP2C19 % inhibition (CYP2C19) was 25.9% and the CYP2C9 % inhibition (CYP2C9) was 30.6%. It also gave a CYP2D6 % inhibition (CYP2D6) of 13.5%, a CYP3A4 % inhibition (CYP3A4) of 42.6% and a CYP1A2 % inhibition (CYP1A2) of 9.8%.
